Experimental data published in patent publication US20230227466A1, “SUBSTITUTED THIENOPYRIMIDINES THAT INTERACT WITH THE RAS SUPERFAMILY FOR THE TREATMENT OF CANCERS, INFLAMMATORY DISEASES, RASOPATHIES, AND FIBROTIC DISEASE” (SHY Therapeutics, LLC, priority 2020, published 2023).
pIC50: −log10 of the molar value. Like-named read-outs stand apart in the source and are kept apart here.

Legend:
KRas G12C mutant = biological target: T1, KRas G12C mutant (Homo sapiens, UniProt P01116, G12C); test: Ras GTP binding domain inhibition assay (labeled-GTP competition, cell-free)
T1 construct: made in house
Text: (§1) This is a competitive binding assay. It involves the immobilization of a protein on solid phase, interaction with a small molecule drug candidate, and then competitive binding with a labeled native GTP or GDP ligand.
(§2) In theory, the assay is suitable for use with any GTP or GDP binding protein.
(§3) The following method was developed as specific assay for the following proteins: KRas wild type, KRas Q61H mutant, KRas G12C mutant, KRas G12D mutant, Rac-1, and Rho-A.
(§4) The small GTPases proteins: KRas wild type. KRas Q61H mutant, KRas G12C mutant, KRas G12D mutants, Rac-1, and Rho-A were expressed as His-tagged proteins. In addition, the Guanosine nucleotide Exchange Factor (GEF) Sos protein (residues 556-1049) was expressed as a His-tagged protein. In cells, the guanine nucleotide exchange factor Sos protein promotes activation of Ras proteins by stimulating an exchange of GDP for GTP. The inclusion of Sos to the Ras GTP binding domain inhibition assay may be considered as an alternative representation of physiological cellular conditions for evaluating the inhibitory activity of some of the tested small molecules.
(§5) For the assay, all purified small GTPases proteins were diluted in Buffer-I or Buffer-II to a final concentration of 10-30 μg/mL. 200 μL of each diluted protein was added to a nickel-coated 96-well plate and incubated overnight at 4° C. Then the protein solution was discarded and 200 μL of Buffer-I or Buffer-II was added to each well in the presence of 1% DMSO. Compounds to be tested were added to the protein-coated wells at final concentration of 20 μM, and incubated for 3 hours at room temperature with and without 10-30 μg/mL of Sos added to the final hour of the incubation. When performing IC50 measurements a serial dilution of all tested concentrations was added. Then Cy3-GTP or Cy5-GTP was added to each well to a final concentration of 100 nM. The labeled GTP was incubated for 45 minutes at room temperature. Following GTP incubation, wells were washed 3× in Buffer-I or Buffer-II and 200 μL of Buffer-I or Buffer-II was added to each well. Following washes, the amount of bound labeled-GTP was measured using a SpectraMax M3 (Molecular Devices).

KRas G12D mutant = biological target: T2, KRas G12D mutant (Homo sapiens, UniProt P01116, G12D); test: as above
T2 construct: made in house
Text: as §1, §2, §3, §4, §5

KRas Q61H mutant = biological target: T3, KRas Q61H mutant (Homo sapiens, UniProt P01116, Q61H); test: as above
T3 construct: made in house
Text: as §1, §2, §3, §4, §5

[1] = tested on: MIA-PaCa-2 pancreatic cancer cell line (KRAS G12C); test: Cell proliferation assay (CellTiter 96 Aqueous One); type: cell-based; conditions: Homo sapiens; for IC50: MIA PaCa-2, MIA PaCa-2; for inhibition at 10 µM: MIA PaCa-2, read-out: % inh cell proliferation (10 μM) in MIA PaCa-2
Description: Cell lines: Human tumor-derived cell lines were purchased from American Type Culture Collection. Human tumor-derived pancreatic cancer cell line MIA-PACA2 (having a KRAS G12C mutation) and Panc-1 (having a KRAS G12D mutation), and Human non-small cell lung cancer (NSCLC) cell line A549 (having a KRAS G12S mutation) were grown in complete DMEM-High Glucose. Human colon cancer cell line SW-620 (having a KRAS G12V mutation) was grown in RPMI. All cell lines were supplemented with penicillin (100 U/mL), streptomycin (100 μg/mL), and 10% heat-inactivated FBS at 37° C. in a humidified incubator with 5% CO2.
Method: Cells were plated at 2000 to 5000 cells/well density in 96-wells plate and cultured overnight. Small molecules to be tested were added to the cells in the final concentration of 10 μM in the presence of 0.3% DMSO and 10% FBS, and incubated for 2-4 days at 37° C. in a humidified incubator with 5% CO2. For IC50 value determination, serial dilutions of compounds were added to cells under the same conditions.
Assay: At the end of the incubation period, cell viability was measured using the CellTiter 96® Aqueous One Solution Cell Proliferation Assay according to manufacturer specifications (Promega, Madison, Wis.). The percentage of small molecules inhibition of cellular proliferation was calculated from raw data.

KRas wild type = KRas wild type (Homo sapiens, UniProt P01116); test: Ras GTP binding domain inhibition assay (labeled-GTP competition, cell-free); parameters: made in house
Text: as §1, §2, §3, §4, §5

Rac-1 = Rac-1 (Homo sapiens, UniProt P63000); test: as above; parameters: made in house
Text: as §1, §2, §3, §4, §5

Rho-A = Rho-A (Homo sapiens, UniProt P61586); test: as above; parameters: made in house
Text: as §1, §2, §3, §4, §5

[2] = with SOS, read-out: KRas G12C mutant + SOS: % inh.
[3] = without SOS, read-out: KRas G12C mutant: % inh.
[4] = with SOS, read-out: KRas G12D mutant + SOS: % inh.
[5] = without SOS, read-out: KRas G12D mutant: % inh.
[6] = with SOS, read-out: KRas Q61H mutant + SOS: % inh.
[7] = without SOS, read-out: KRas Q61H mutant: % inh.
[8] = with SOS, read-out: KRas wild type + SOS: % inh.
[9] = without SOS, read-out: KRas wild type: % inh.
[10] = with SOS, read-out: Rac-1 + SOS: % inh.
[11] = without SOS, read-out: Rac-1: % inh.
[12] = with SOS, read-out: Rho-A + SOS: % inh.
[13] = without SOS, read-out: Rho-A: % inh.

inhibition at 20 µM (KRas G12C mutant; [2]) [%]	inhibition at 20 µM (KRas G12C mutant; [3]) [%]	inhibition at 20 µM (KRas G12D mutant; [4]) [%]	inhibition at 20 µM (KRas G12D mutant; [5]) [%]	inhibition at 20 µM (KRas Q61H mutant; [6]) [%]	inhibition at 20 µM (KRas Q61H mutant; [7]) [%]	pIC50 (KRas Q61H mutant; with SOS)	IC50 [1] [µM]	inhibition at 20 µM (KRas wild type; [8]) [%]	inhibition at 20 µM (KRas wild type; [9]) [%]	inhibition at 20 µM (Rac-1; [10]) [%]	inhibition at 20 µM (Rac-1; [11]) [%]	inhibition at 20 µM (Rho-A; [12]) [%]	inhibition at 20 µM (Rho-A; [13]) [%]	Compound	inhibition at 10 µM [1] [%]
51 to 75	26 to 50	1 to 25	0	51 to 75	26 to 50			51 to 75	51 to 75		0		76 to 100	CO[C@@H]1CCCN(c2nc(-c3nccn3C)nc3sc(-c4ccn(C(C)C)n4)c(C)c23)C1 [Compound 50, (R)-6-(1-Isopropyl-1H-pyrazol-3-yl)-4-(3-methoxypiperidin-1-yl)-5-methyl-2-(1-methyl-1H-imidazol-2-yl)thieno[2,3-d]pyrimidine]	76 to 100
76 to 100	51 to 75	76 to 100	26 to 50	76 to 100	51 to 75	5.30 to 6.00	< 1	76 to 100	76 to 100	26 to 50	26 to 50	51 to 75	51 to 75	CO[C@H]1CC[C@@H](Nc2nc(-c3nccn3C)nc3sc(-c4ccn(C(C)C)n4)c(C)c23)C1 [Compound 32, 6-(1-Isopropyl-1H-pyrazol-3-yl)-N-((1R,3S)-3-methoxycyclopentyl)-5-methyl-2-(1-methyl-1H-imidazol-2-yl)thieno[2,3-d]pyrimidin-4-amine]	76 to 100
76 to 100	51 to 75	51 to 75	51 to 75	76 to 100	51 to 75		< 1	76 to 100	76 to 100	51 to 75	51 to 75	76 to 100	76 to 100	CO[C@H]1C[C@@H](CNc2nc(-c3nccn3C)nc3sc(-c4ccn(C(C)C)n4)c(C)c23)C1 [Compound 47, 6-(1-Isopropyl-1H-pyrazol-3-yl)-N-(((1s,3s)-3-methoxycyclobutyl)methyl)-5-methyl-2-(1-methyl-1H-imidazol-2-yl)thieno[2,3-d]pyrimidin-4-amine]	76 to 100
76 to 100	76 to 100	76 to 100	51 to 75	76 to 100	51 to 75		< 1	76 to 100	76 to 100		26 to 50		51 to 75	CO[C@H]1CC[C@H](Nc2nc(-c3nccn3C)nc3sc(-c4ccn(C(C)C)n4)c(C)c23)CC1 [Compound 54]	76 to 100
76 to 100	51 to 75	76 to 100	76 to 100	76 to 100	76 to 100		5 to 10	76 to 100	76 to 100	76 to 100	76 to 100	76 to 100	76 to 100	COCC1CN(c2nc(-c3nccn3C)nc3sc(-c4ccn(C(C)C)n4)c(C)c23)CCO1 (racemic) [Compound 45, rac-4-(6-(1-Isopropyl-1H-pyrazol-3-yl)-5-methyl-2-(1-methyl-1H-imidazol-2-yl)thieno[2,3-d]pyrimidin-4-yl)-2-(methoxymethyl)morpholine]	26 to 50

Continued, compound first:

Compound	inhibition at 20 µM (KRas G12C mutant; [2]) [%]	inhibition at 20 µM (KRas G12C mutant; [3]) [%]	inhibition at 20 µM (KRas G12D mutant; [4]) [%]	inhibition at 20 µM (KRas G12D mutant; [5]) [%]	inhibition at 20 µM (KRas Q61H mutant; [6]) [%]	inhibition at 20 µM (KRas Q61H mutant; [7]) [%]	pIC50 (KRas Q61H mutant; with SOS)	IC50 [1] [µM]	inhibition at 20 µM (KRas wild type; [8]) [%]	inhibition at 20 µM (KRas wild type; [9]) [%]	inhibition at 20 µM (Rac-1; [10]) [%]	inhibition at 20 µM (Rac-1; [11]) [%]	inhibition at 20 µM (Rho-A; [12]) [%]	inhibition at 20 µM (Rho-A; [13]) [%]	inhibition at 10 µM [1] [%]
COCCn1ccnc1-c1nc(N[C@H]2C[C@@H](OC)C2)c2ccsc2n1 [Compound 9, N-((1s,3s)-3-Methoxycyclobutyl)-2-(1-(2-methoxyethyl)-1H-imidazol-2-yl)thieno[2,3-d]pyrimidin-4-amine]	76 to 100	76 to 100	76 to 100	51 to 75	76 to 100	76 to 100	5.00 to 5.30	> 10	76 to 100	76 to 100	76 to 100	76 to 100	76 to 100	76 to 100	1 to 25
COc1cccc(Nc2nc(-c3nccn3C)nc3sc(-c4ccn(C(C)C)n4)c(C)c23)n1.Cl [Compound 65, 6-(1-Isopropyl-1H-pyrazol-3-yl)-N-(6-methoxypyridin-2-yl)-5-methyl-2-(1-methyl-1H-imidazol-2-yl)thieno[2,3-d]pyrimidin-4-amine hydrochloride salt]	76 to 100	26 to 50	51 to 75	26 to 50	51 to 75	26 to 50		5 to 10	51 to 75	26 to 50		26 to 50		51 to 75	76 to 100
CO[C@H]1CC[C@@H](Nc2nc(-c3nccn3C)nc3sc(-c4ccn(C(C)C)n4)c(C)c23)CC1 [Compound 55]	26 to 50	26 to 50	26 to 50	51 to 75	26 to 50	1 to 25		< 1	1 to 25	1 to 25		0		51 to 75	76 to 100
CC(C)OCCn1ccnc1-c1nc(O)c2scc(-c3ccccn3)c2n1 [Compound 82, 2-(1-(2-Isopropoxyethyl)-1H-imidazol-2-yl)-7-(pyridin-2-yl)thieno[3,2-d]pyrimidin-4-ol]	51 to 75	51 to 75	51 to 75	51 to 75	51 to 75	51 to 75		1 to 4.99	51 to 75	51 to 75		76 to 100		51 to 75	76 to 100
